Laboratory results: patent publication US20190070081A1, “DEODORIZING COSMETIC COMPOSITION AND METHOD FOR PREPARING SAME” (EINS CO., LTD., priority 2015, published 2019)

Tested on: skin tissue model
Experiment: Skin irritation test: MTT effective time (ET-50) viable cell assay on skin tissue model
Assay type: cell-based
Details: for % Viability: skin tissue
Procedure: The skin inflammation potential of a cleaning gel of product No. 1 (also known as Double. S Gel (Lot No. 15730A2); hereinafter, referred to as experimental product)) was evaluated using commercially available MTT effective time (ET-50) live cell experiment test and a skin tissue model.
The experiments performed at the Life Science Institute (BioScience Laboratories, Inc.) began on Sep. 2, 2015 and were completed on Sep. 4, 2015. One deviation in SOP generated during the experiments is shown in Tables 1 to 7 below, the protocols and/or SOP deviation recording formats (form number: 99-QA-004) of FIGS. 1 and 2. […] The skin tissue samples were exposed to the experimental product for 1 hour, 4 hours, or 24 hours.
The experimental product was tested undiluted, as provided by the sponsor. Three untreated negative control dermal tissue specimens were exposed for 24 hours.
The first tissue specimen, the second tissue specimen, and the third tissue specimen were exposed to 1.0% Triton X-100 (Lot No. 082615BBA) as a positive control for 1, 4, and 24 hours, respectively.
At the same time as the experimental procedure, MTT control was evaluated, and the evaluation was regarded as a result of direct reduction of the MTT product. […] During the experimental procedure, the frozen tissue was exposed to the experimental product to determine whether the experimental product was effectively washed from tissue.
The absorbance of the specimens was determined using a VERSA Max™ Tunable Microplate Reader (with SOFTmax® PRO Software) set to 570 nm with several […] aliquots of isopropyl alcohol.
Absorbance values were converted into the probabilistic feasibility of tissue culture by SOFTmax® PRO Software. These values were expressed as time-dependent by SOFTmax® PRO Software, and then ET-50 was determined by interpolation. ET-50 is an estimated time when the probabilistic feasibility of tissues falls to 50%.

Triton X-100 [Positive Control]
Irritancy Classification (Expected In-Vivo Irritancy) (from MTT ET-50): Moderate to Mild Irritation | % Viability (1 hour exposure): 66.51% | % Viability (4 hours exposure): 78.40% | % Viability (24 hours exposure): 6.06% | MTT ET-50 (tested undiluted, skin tissue exposed 1, 4, 24 hours, time at which viability falls to 50%, by interpolation): 4.65 h
